In article PMC12590632, “Identification and characterization of a nonpeptidic cyclophilin ligand with antiviral activity against feline and porcine α-coronaviruses” (Veterinary Research, 2025):

Assays:
Human cyclophilin A = target: T1, Human cyclophilin A (Homo sapiens, UniProt P62937); experiment: PPIase enzyme assay (chymotrypsin-coupled); format: biochemical; conditions: 20 °C, mean ± SD of two or more experiments
T1 construct: made in house
Protocol: Human cyclophilin A was purified, and its PPIase activity in the absence or presence of SMCypI was measured as previously described. Briefly, cyclophilin A PPIase activity was measured at 20 °C using the standard chymotrypsin-coupled assay. The assay buffer (25 mM HEPES and 100 mM NaCl, pH 7.8) and purified cyclophilin A were precooled to 4 °C. Then, 5 µL of 50 mg/mL chymotrypsin in 1 mM HCl was added (final reaction volume of 500 µL). The reaction was initiated by adding the peptide substrate Suc-Ala-Ala-Cis-Pro-Phe-pNA to a LiCl/TFE solution with rapid inversion. The absorbance of p-nitroaniline was monitored at 390 nm until the reaction was complete, i.e., when the absorbance reached a plateau (1 min). The final concentration of LiCl in the assay was 20 mM, and TFE was present at a concentration of 4% (v/v). The absorbance was measured every second using a spectrophotometer (BioMate3, Thermo Fischer Scientific). For the inhibition assessment, 5 µL of the tested compound in dimethyl sulfoxide (DMSO) was added to the cyclophilin A solution in the assay buffer. CsA (Sigma‒Aldrich, Saint-Louis, USA) was used as a positive control for PPIase inhibition in all measurements. IC50 values were calculated from dose‒response curves and reported as the mean ± standard deviation of two or more experiments.

[1] = system: PEDV (CV777 strain) in Vero cells; experiment: PEDV infection in Vero cells, immunofluorescence, infected area; format: cell-based, porcine epidemic diarrhoea virus; conditions: for Antiviral potency against PEDV: MOI 0.5, 24 h, 0.78-12.5 µM
Protocol: (§1) CRFK, PK15 and Vero cells were plated in a 96-well plate at a density of 2 × 10^4 cells/well and incubated for 18 h at 37 °C. The cells were infected with FIPV (MOI of 1), TGEV (MOI of 0.5) or PEDV (MOI of 0.5). Viral inoculation was performed in the presence of F83233, F832 and F833 at concentrations ranging from 0.1 μM to 25 μM for FIPV assays and from 0.78 µM to 12.5 µM for TGEV and PEDV. Two hours after viral inoculation, fresh medium supplemented with the same concentrations of inhibitors was added. The antiviral effect was measured at the peak of viral replication, i.e., after 24 h for FIPV and PEDV infection and after 48 h for TGEV infection. The experiments were repeated twice, and each condition was tested in duplicate or triplicate in independent wells.
(§2) Fixed PK15 and Vero cells were processed similarly. TGEV infection was detected with a homemade anti-spike antibody (called 51.13 [46, 47], dilution 1/10 000) from a mouse and with an anti-mouse AlexaFluor-555-conjugated secondary antibody. PEDV infection was detected with polyclonal antibodies from pigs (a gift from Drs. Y. Blanchard and M. Contrant, Anses, Ploufragan, dilution 1/300) and with an anti-pig AlexaFluor-488-conjugated secondary antibody (SouthernBiotech, Birmingham, USA). […] (J2 from Cell Signaling Technology, Danvers, USA, dilution 1/1000), followed by incubation with an anti-mouse AlexaFluor-555-conjugated secondary antibody. The cells were counterstained with DAPI (Sigma‒Aldrich, final concentration of 1 µg/mL). Secondary antibodies (with the exception of the anti-pig at a 1/400 dilution) were used at a 1/800 dilution and were obtained from Molecular Probes (Thermo Fischer Scientific).
(§3) For each concentration of F832, F833 or F83233, 3 to 5 pictures were randomly taken with an epifluorescence microscope (Zeiss, Oberkochen, Germany) with a 10X objective. The area of staining was measured with ImageJ. The number of nuclei/syncytia (defined as PEDV-positive cells with > 4 nuclei) in PEDV-infected cells was manually counted using ImageJ. Blind analysis was performed to avoid bias.

FIPV in CRFK cells = experiment: Time-of-drug addition assay; format: cell-based, feline infectious peritonitis virus
Protocol: (§4) CRFK cells were plated in a 96-well plate at a density of 2 × 10^4 cells/well and incubated for 24 h. Serial tenfold dilutions (10^–1 to 10^–6) of viral supernatants, obtained with or without cyclophilin inhibitors, were added to CRFK cells in eight replicate wells per dilution. The viral inoculum was removed 2 h after infection, and the cells were incubated for 24 h at 37 °C. The cells were fixed via sequential incubation in absolute ethanol followed by 70% ethanol (10 min each at room temperature). FIPV antigens were then detected by immunofluorescence using ascitic fluid from an infected cat (dilution 1/500), followed by incubation with an anti-cat AlexaFluor-488-conjugated secondary antibody (Jackson ImmunoResearch, West Grove, USA). Wells containing fluorescent cells were counted. The 50% infectious dose (ID50) was calculated using the Spearman–Karber method. The results are presented as the means of ≥ 2 experiments performed in triplicate.
CRFK cells were plated in a 96-well plate at a density of 2 × 10^4 cells per well and incubated for 24 h. The cells were infected with FIPV at an MOI of 1 in the presence of 5 µM F83233 (for 0 h post-infection (pi)) or in the presence of DMSO (for the other time points). After viral inoculation, the culture medium was removed, fresh medium containing 5 μM F83233 was added at 1, 3, 6, 9 or 18 h post-infection, and infection was stopped at 24 h post-inoculation. The cell supernatants were stored at −80 °C prior to end-point dilution to measure the effect of F83233 on FIPV infectivity under different conditions. The experiment was repeated three times, and each condition was tested in triplicate.

[2] = system: FIPV (strain 79-1146) in CRFK cells; experiment: SMCypI screening for FIPV infection, viral titre by end-point dilution; format: cell-based, feline infectious peritonitis virus; conditions: 50 µM SMCypI, MOI 1, 24 h
Protocol: CRFK cells were plated in a 96-well plate at a density of 2 × 10^4 cells/well and incubated for 24 h. The cells were infected for 1 h with FIPV at a multiplicity of infection (MOI) of 1 in the presence of 50 µM or 10 µM SMCypI or CsA, respectively. The inoculum was removed after 1 h, and inhibitors (50 μM SMCypI or 10 μM CsA) were added for 24 supplemental hours. The supernatants were collected and stored at −80 °C prior to the end-point dilution assays.
as §4, with “The results are presented as the means of ≥ 2 experiments performed in triplicate.” left out

CRFK cells = experiment: Cytotoxicity assay (CellTiter-Glo); format: cell-based, feline; conditions: 24 h, up to 25 µM
Protocol: The cells were plated in a 96-well plate at a density of 2 × 10^4 cells/well and incubated for 24 h. The culture medium was replaced with serial dilutions of culture medium containing three replicates of different concentrations (ranging from 0.9 μM to 25 μM) of F83233, F832 and F833 molecules, DMSO or media alone as controls. The plates were incubated for 24 h at 37 °C. Cytotoxicity was evaluated with the CellTiter-Glo Cell Viability Assay Kit (Promega, Madison, USA).

[3] = system: FIPV (strain 79-1146) in CRFK cells; experiment: FIPV viral titre in cell supernatants, dose response in CRFK cells; format: cell-based, feline infectious peritonitis virus; conditions: for Decrease of FIPV virus titre: 25 µM
Protocol: as §4, §1

[4] = system: TGEV (Purdue strain) in PK15 cells; experiment: TGEV infection in PK15 cells, immunofluorescence, infected area; format: cell-based, transmissible gastroenteritis virus; conditions: for Effect on TGEV infection: 12.5 µM
Protocol: as §1, §2, §3

[5] = system: PEDV (CV777 strain) in Vero cells; experiment: PEDV-induced syncytium formation and dsRNA staining in Vero cells; format: cell-based, porcine epidemic diarrhoea virus; conditions: 12.5 µM
Description: as §2, §3

[6] = 5 µM F83233, FIPV MOI 1, CRFK cells

T1 sequence (P62937 whole entry): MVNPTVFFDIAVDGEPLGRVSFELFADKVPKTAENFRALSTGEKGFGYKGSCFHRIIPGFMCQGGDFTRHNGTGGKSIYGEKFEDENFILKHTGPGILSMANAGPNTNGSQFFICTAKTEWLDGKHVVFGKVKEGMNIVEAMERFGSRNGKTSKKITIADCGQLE

Structure (SMILES) | IC50 (Human cyclophilin A) | Effect on PEDV infection ([1]; 3.125 µM, 24 h) | Decrease of antiviral efficiency between addition at 1 and 3 h post-infection (FIPV in CRFK cells; [6]) | Time of addition giving the maximal antiviral effect (FIPV in CRFK cells; [6]) | Inhibition of FIPV titre compared with DMSO control (FIPV in CRFK cells; 5 µM F83233 added 18 h post-infection) | Inhibition of FIPV titre [2] | Cytotoxicity (CRFK cells) | Reduction in FIPV viral titre ([3]; 5 µM, 24 h) | FIPV viral reduction ([3]; 10 µM) | Maximal inhibitory effect, decrease of FIPV titre ([3]; 12.5 µM, 24 h) | Decrease of FIPV virus titre ([3]; 24 h) | Effect on TGEV-infected cells ([4]; 6.25 µM and 12.5 µM, 48 h) | Concentration at which active against TGEV ([4]; MOI 0.5, 48 h) | Double-strand RNA staining (viral genome replication) in syncytia [5] | Size of PEDV-induced syncytia and number of nuclei per syncytium [5] | Antiviral potency against PEDV [1] | Effect on TGEV infection ([4]; MOI 0.5, 48 h)
O=C(NCc1ccc2c(c1)CCCN2)NC(C(=O)N1CCCC1c1cccc2ccsc12)C1CCCCC1 (stereo not shown) [Compound F83233] | 700 ± 500 nM | important reduction in infection | more than 1 Log10 | simultaneously with the virus or 1 h later | ≈ 1 Log10 | more than 4 Log10 | low cytotoxicity | approximately 2 Log10 | approximately 3 Log10 | 3–4 Log10 | ≈ 3 Log10 | almost complete disappearance of infected cells | 1.6 µM | markedly impacted | drastically decreased |  | 
Nc1ccc(CNC(=O)NC(C(=O)N2CCCC2c2cccc3ccsc23)C2CCCCC2)cc1 (stereo not shown) [Compound F833] | 600 ± 100 nM |  |  |  |  |  | low cytotoxicity |  |  |  | ≈ 0.5 Log10 |  |  |  |  | modest antiviral potency | no significant effect
O=C(NCc1ccc2c(c1)CCCN2)NC(C(=O)N1CCCC1c1cccc2ccsc12)c1ccccc1 (stereo not shown) [Compound F832] | 400 ± 90 nM |  |  |  |  |  | low cytotoxicity |  |  |  | ≈ 0.5 Log10 |  |  |  |  | modest antiviral potency | no significant effect
